Key:
recombinant human PDE5 = recombinant human PDE5 (Homo sapiens, UniProt O76074); test: Inhibitory effect on cGMP-PDE (PDE5 IC50 determination); type: biochemical; settings: in vitro
Method: The compounds of structural formula (I) were tested for an ability to inhibit PDE5. The ability of a compound to inhibit PDE5 activity is related to the IC50 value for the compound, i.e., the concentration of inhibitor required for 50% inhibition of enzyme activity. The IC50 value for compounds of structural formula (I) were determined using recombinant human PDE5.
Phosphodiesterase activity of the preparations was determined as follows. PDE assays utilizing a charcoal separation technique were performed essentially as described in Loughney et al. (1996). In this assay, PDE activity converts [32P]cAMP or [32P]cGMP to the corresponding [32P]5′-AMP or [32P]5′-GMP in proportion to the amount of PDE activity present. The [32P]5′-AMP or [32P]5′-GMP then was quantitatively converted to free [32P]phosphate and unlabeled adenosine or guanosine by the action of snake venom 5′-nucleotidase. […] The assay was performed at 30° C. in a 100 μL reaction mixture containing (final concentrations) 40 mM Tris HCl (pH 8.0), 1 μM ZnSO4, 5 mM MgCl2, and 0.1 mg/mL bovine serum albumin (BSA). PDE enzyme was present in quantities that yield <30% total hydrolysis of substrate (linear assay conditions). The assay was initiated by addition of substrate ([…] [32P]cAMP or cGMP), and the mixture was incubated for 12 minutes. seventy-five (75) μg of Crotalus atrox venom then was added, and the incubation was continued for 3 minutes (15 minutes total). The reaction was stopped by addition of 200 μL of activated charcoal (25 mg/mL suspension in 0.1 M NaH2PO4, pH 4). After centrifugation (750×g for 3 minutes) to sediment the charcoal, a sample of the supernatant was taken for radioactivity determination in a scintillation counter and the PDE activity was calculated.
cGMP-PDE activity of compounds of the present invention was measured using a one-step assay adapted from Wells et al., Biochim. Biophys. Acta, 384, 430 (1975). The reaction medium contained 50 mM Tris-HCl, pH 7.5, 5 mM magnesium acetate, 250 μg/ml 5′-Nucleotidase, 1 mM EGTA, and 0.15 μM 8-[H^3]-cGMP. Unless otherwise indicated, the enzyme used was a human recombinant PDE5 (ICOS Corp., Bothell, Wash.).
Compounds of the invention were dissolved in DMSO finally present at 2% in the assay.

Row | Compound | IC50 (recombinant human PDE5) | melting point
1 | CN1CC(=O)N2[C@H](c3ccc4c(c3)OCO4)c3c(c4ccccc4n3C)C[C@@H]2C1=O [Example 2, (6R,12aR)-6-Benzo[1,3]dioxol-5-yl-2,7-dimethyl-2,3,6,7,12,12a-hexahydropyrazino[1′,2′:1,6]-pyrido[3,4-b]indole-1,4-dione] | 571 nM | –
2 | CC(=O)n1c2c(c3ccccc31)C[C@@H]1C(=O)N(C)CC(=O)N1[C@@H]2c1ccc2c(c1)OCO2 [Example 4, (6R,12aR)-7-Acetyl-6-benzo[1,3]dioxol-5-yl-2-methyl-2,3,6,7,12,12a-hexahydropyrazino-[1′,2′:1,6]pyrido[3,4-b]indole-1,4-dione] | 7 nM | 145 to 159 °C
3 | CN1CC(=O)N2[C@H](c3ccc4c(c3)OCO4)c3c(c4ccccc4n3C)C[C@H]2C1=O [Example 1, (6R,12aS)-6-Benzo[1,3]dioxol-5-yl-2,7-dimethyl-2,3,6,7,12,12a-hexahydropyrazino[1′,2′:1,6]-pyrido[3,4-b]indole-1,4-dione] | 124 nM | 386 to 387 °C
4 | CN1CC(=O)N2[C@H](c3ccc4c(c3)OCO4)c3c(c4ccccc4n3Cc3ccccc3)C[C@H]2C1=O [Example 3, (6R,12aS)-6-Benzo[1,3]dioxol-5-yl-7-benzyl-2-methyl-2,3,6,7,12,12a-hexahydropyrazino-[1′,2′:1,6]pyrido[3,4-b]indole-1,4-dione] | 313 nM | 110 to 145 °C
